Assay: Ex vivo percutaneous absorption of amitriptyline on human skin samples in a Frantz cell
Type: in vitro ADME
Details: topical application of compositions A and B
Experimental: Comparative ex vivo study of the percutaneous absorption of amitriptyline in a formulation A in the form of an aqueous gel (invention) and a formulation B in the form of cream (comparative). Each of compositions A and B was applied to distinct samples of human skin. For each composition, the experiment was repeated 3 times with 3 skin samples from 3 different donors, giving 9 samples. The skin samples are placed in a Frantz cell and heated to a surface temperature of 32° C.±1° C. Composition A or B is spread homogenously with a spatula onto each skin sample at a rate of 10 mg per cell, corresponding to 5 mg/cm^2 skin. The skin samples are rinsed 16 hours after application. Each skin sample was placed using tweezers onto absorbent paper (dermis side down). The stratum corneum was removed using adhesive strips. After the removal of the stratum corneum the sample was perforated. The epidermis is then separated from the dermis. Each of them is placed in separate vials. Different samples were then extracted.

Compound: CN(C)CCC=C1c2ccccc2CCc2ccccc21 [amitriptyline]
- Systemic passage of amitriptyline: less than 0.10 % of the administered dose
